For orientation: IC50 means the concentration that gives 50% inhibition.

Some results are limits rather than exact numbers.

For the assay, the target named is T1, EBP (Homo sapiens, UniProt Q15125).
T1 construct: HEK293T cells were utilized as the source of EBP enzyme; endogenous in cells; host or cells: HEK293T
T1 sequence (Q15125 whole entry): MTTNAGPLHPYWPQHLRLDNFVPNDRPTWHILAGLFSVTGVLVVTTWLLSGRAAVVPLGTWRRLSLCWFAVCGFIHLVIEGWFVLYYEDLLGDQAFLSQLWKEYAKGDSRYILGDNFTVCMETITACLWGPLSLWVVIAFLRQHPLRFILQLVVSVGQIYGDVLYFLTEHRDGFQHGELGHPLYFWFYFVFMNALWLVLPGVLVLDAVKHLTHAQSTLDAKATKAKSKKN
Description: EBP Functional Assay (EBP immunoaffinity LC-MS assay). The assay is classed as biochemical. The note with it: EBP enzyme from HEK293T cells; 30 min with inhibitor, then zymosterol-d5, 37° C., 4 h; percent conversion to dehydrolathosterol-d5 by LC-APCI MRM MS. Put shortly:
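IC50 comes from a 4-parameter logistic fit of zymosterol-d5-to-product percent conversion, measured by LC-APCI MRM MS after sterol extraction. Compounds were preincubated 30 min with EBP from HEK293T cells before deuterated substrate was added for 4 h at 37° C; Tasin-1 served as reference.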
With `Cc1nc(C(C)(F)F)ccc1S(=O)(=O)N1CC2(CN(CC3(C)CCOCC3)C2)C1` [Example 83], the IC50 was in the range of 100 to 250 nM.

`Cc1nc(C(C)(F)F)ccc1S(=O)(=O)N1CC2(CN(C3CCOC3)C2)C1` (centres unmarked) [Example 84] displayed an IC50 of 250 to 4000 nM.

In the case of `Cc1nc(C(C)(F)F)ccc1S(=O)(=O)N1CC2(CN(CC3CCOC3)C2)C1` (centres unmarked) [Example 85], the IC50 was < 100 nM.

Take `Cc1nc(C(C)(F)F)ccc1S(=O)(=O)N1CC2(CN(C(C)C3CCOC3)C2)C1` (centres unmarked) [Example 86]: the IC50 is < 100 nM.

For `Cc1nc(C(C)(F)F)ccc1S(=O)(=O)N1CC2(CN(CC3COC3)C2)C1` [Example 87], the IC50 is < 100 nM.

`Cc1nc(C(C)(F)F)ccc1S(=O)(=O)N1CC2(CN(C(C)C3COC3)C2)C1` (centres unmarked) [Example 88] displayed a half-inhibitory concentration (IC50) of 100 to 250 nM.

In the case of `Cc1nc(C(C)(F)F)ccc1S(=O)(=O)N1CC2(CN(CC3(C)COC3)C2)C1` [Example 89], the IC50 was < 100 nM.

Compound `Cc1nc(C(F)F)ccc1S(=O)(=O)N1CC2(CN(C3CCOCC3)C2)C1` [Example 90, 2-((6-(difluoromethyl)-2-methylpyridin-3-yl)sulfonyl)-6-(tetrahydro-2H-pyran-4-yl)-2,6-diazaspiro[3.3]heptane] had an IC50 of 100 to 250 nM.

For `Cc1nc(C(F)F)ccc1S(=O)(=O)N1CC2(CN(C3CC4(COC4)C3)C2)C1` [Example 91, 2-((6-(difluoromethyl)-2-methylpyridin-3-yl)sulfonyl)-6-(2-oxaspiro[3.3]heptan-6-yl)-2,6-diazaspiro[3.3]heptane], the IC50 fell in the range of 250 to 4000 nM.

In the case of `Cc1nc(C(C)(C)F)ccc1S(=O)(=O)N1CC2(CN(C3CC4(COC4)C3)C2)C1` [Example 92, 2-((6-(2-fluoropropan-2-yl)-2-methylpyridin-3-yl)sulfonyl)-6-(2-oxaspiro[3.3]heptan-6-yl)-2,6-diazaspiro[3.3]heptane], the IC50 is < 100 nM.

For `Cc1nc(C(C)(C)F)ccc1S(=O)(=O)N1CC2(CN(C3CCOCC3)C2)C1` [Example 93, 2-((6-(2-fluoropropan-2-yl)-2-methylpyridin-3-yl)sulfonyl)-6-(tetrahydro-2H-pyran-4-yl)-2,6-diazaspiro[3.3]heptane], the half-maximal inhibitory concentration (IC50) was < 100 nM.

As to `Cc1nc(OC(F)F)ccc1S(=O)(=O)N1CC2(CN(C3CCOCC3)C2)C1` [Example 94, 2-((6-(difluoromethoxy)-2-methylpyridin-3-yl)sulfonyl)-6-(tetrahydro-2H-pyran-4-yl)-2,6-diazaspiro[3.3]heptane], the IC50 was < 100 nM.

`Cc1nc(OC(F)F)ccc1S(=O)(=O)N1CC2(CN(C3CC4(COC4)C3)C2)C1` [Example 95, 2-((6-(difluoromethoxy)-2-methylpyridin-3-yl)sulfonyl)-6-(2-oxaspiro[3.3]heptan-6-yl)-2,6-diazaspiro[3.3]heptane] registered an IC50 of 100 to 250 nM.

As for `Cn1nc(C(F)F)cc1S(=O)(=O)N1CC2(CN(C3CCOCC3)C2)C1` [Example 96, 2-((3-(difluoromethyl)-1-methyl-1H-pyrazol-5-yl)sulfonyl)-6-(tetrahydro-2H-pyran-4-yl)-2,6-diazaspiro[3.3]heptane], the IC50 lay in the range of 100 to 250 nM.

In turn, `COc1cc(S(=O)(=O)N2CC3(CN(C4CCOCC4)C3)C2)n(C)n1` [Example 97, 2-((3-methoxy-1-methyl-1H-pyrazol-5-yl)sulfonyl)-6-(tetrahydro-2H-pyran-4-yl)-2,6-diazaspiro[3.3]heptane] registered a half-maximal inhibitory concentration (IC50) of 250 to 4000 nM.

`COc1ccc(S(=O)(=O)N2CC3(CN(C4CCOCC4)C3)C2)c(Cl)n1` [Example 98, 2-((2-chloro-6-methoxypyridin-3-yl)sulfonyl)-6-(tetrahydro-2H-pyran-4-yl)-2,6-diazaspiro[3.3]heptane]: the IC50 is < 100 nM.

As for `COc1ncc(Cl)cc1S(=O)(=O)N1CC2(CN(C3CCOCC3)C2)C1` [Example 99, 2-((5-chloro-2-methoxypyridin-3-yl)sulfonyl)-6-(tetrahydro-2H-pyran-4-yl)-2,6-diazaspiro[3.3]heptane], the IC50 was < 100 nM.

Turning to `Cc1cc(C(F)(F)F)nc(C)c1S(=O)(=O)N1CC2(CN(C3CCOCC3)C2)C1` [Example 100, 2-((2,4-dimethyl-6-(trifluoromethyl)pyridin-3-yl)sulfonyl)-6-(tetrahydro-2H-pyran-4-yl)-2,6-diazaspiro[3.3]heptane], the IC50 is < 100 nM.

The compound `Cc1cc(C(F)(F)F)nc(C)c1S(=O)(=O)N1CC2(CN(C3CC4(COC4)C3)C2)C1` [Example 101, 2-((2,4-dimethyl-6-(trifluoromethyl)pyridin-3-yl)sulfonyl)-6-(2-oxaspiro[3.3]heptan-6-yl)-2,6-diazaspiro[3.3]heptane] had an IC50 of 100 to 250 nM.

As to `Cc1cc(C(F)(F)F)nc(C)c1S(=O)(=O)N1CC2(CN(CC3CCOCC3)C2)C1` [Example 102], the half-maximal inhibitory concentration (IC50) was < 100 nM.

In turn, `Cc1cc(C(F)(F)F)nc(C)c1S(=O)(=O)N1CC2(CN(CC3COC3)C2)C1` [Example 104] displayed an IC50 of 100 to 250 nM.

For the compound `Cc1ccc(S(=O)(=O)N2CC3(CN(C4CCOCC4)C3)C2)c(C(F)(F)F)n1` [Example 105, 2-((6-methyl-2-(trifluoromethyl)pyridin-3-yl)sulfonyl)-6-(tetrahydro-2H-pyran-4-yl)-2,6-diazaspiro[3.3]heptane], the IC50 lay in the range of 100 to 250 nM.

For `Cc1ccc(S(=O)(=O)N2CC3(CN(CC4CCOCC4)C3)C2)c(C(F)(F)F)n1` [Example 106, 2-((6-methyl-2-(trifluoromethyl)pyridin-3-yl)sulfonyl)-6-((tetrahydro-2H-pyran-4-yl)methyl)-2,6-diazaspiro[3.3]heptane], the IC50 lay within 100 to 250 nM.

For the compound `O=S(=O)(c1ccc(C2CC2)nc1C(F)(F)F)N1CC2(CN(C3CCOCC3)C2)C1` [Example 107, 2-((6-cyclopropyl-2-(trifluoromethyl)pyridin-3-yl)sulfonyl)-6-(tetrahydro-2H-pyran-4-yl)-2,6-diazaspiro[3.3]heptane], the IC50 is < 100 nM.

Turning to `O=S(=O)(c1ccc(C2CC2)nc1C(F)(F)F)N1CC2(CN(CC3CCOCC3)C2)C1` [Example 108, 2-((6-cyclopropyl-2-(trifluoromethyl)pyridin-3-yl)sulfonyl)-6-((tetrahydro-2H-pyran-4-yl)methyl)-2,6-diazaspiro[3.3]heptane], the half-inhibitory concentration (IC50) is < 100 nM.

In turn, `O=S(=O)(c1ccc(C(F)(F)F)nc1C(F)(F)F)N1CC2(CN(C3CCOCC3)C2)C1` [Example 109, 2-((2,6-bis(trifluoromethyl)pyridin-3-yl)sulfonyl)-6-(tetrahydro-2H-pyran-4-yl)-2,6-diazaspiro[3.3]heptane] had an IC50 of 250 to 4000 nM.

In turn, `O=S(=O)(c1ccc(C(F)(F)F)nc1C(F)(F)F)N1CC2(CN(C3CC4(COC4)C3)C2)C1` [Example 110] registered an IC50 of 250 to 4000 nM.

Consider `O=S(=O)(c1ccc(C(F)(F)F)nc1C(F)(F)F)N1CC2(CN(CC3CCOCC3)C2)C1` [Example 111], for which the IC50 is < 100 nM.

`O=S(=O)(c1ccc(C(F)(F)F)nc1C(F)(F)F)N1CC2(CN(CC3COC3)C2)C1` [Example 112] came in with an IC50 of 250 to 4000 nM.

In turn, `Cc1nc(C(F)(F)F)ccc1S(=O)(=O)N1CC2(CN(CC3CC4(COC4)C3)C2)C1` [Example 113] came in with an IC50 of 100 to 250 nM.

Take `Cc1nc(C(C)(F)F)ccc1S(=O)(=O)N1CC2(CN(CC3CC4(COC4)C3)C2)C1` [Example 114]: the IC50 is < 100 nM.

On to `Cn1nc(C(F)(F)F)cc1S(=O)(=O)N1CC2(CN(CC3CC4(COC4)C3)C2)C1` [Example 115], for which the IC50 was < 100 nM.

For the origin of these results see patent US20250171463A1 (BIOGEN MA INC., priority 2022, published 2025).
